From ChEMBL document CHEMBL2057184, “Essential structure of opioid κ receptor agonist nalfurafine for binding to the κ receptor 2: synthesis of decahydro(iminoethano)phenanthrene derivatives and their pharmacologies” (Bioorg Med Chem Lett, 2012)

Legend:
[1] = Selectivity ratio of Ki for delta opioid receptor in mouse cerebellum to Ki for kappa opioid receptor in guinea pig cerebellum; type: tissue-based
[2] = Selectivity ratio of Ki for mu opioid receptor in mouse cerebellum to Ki for kappa opioid receptor in guinea pig cerebellum; type: tissue-based
[3] = biological target: Delta-type opioid receptor (Mus musculus, UniProt P32300); experiment: Displacement of [3H]DPDPE from delta opioid receptor in mouse cerebellum
Chain of Delta-type opioid receptor (P32300 whole entry): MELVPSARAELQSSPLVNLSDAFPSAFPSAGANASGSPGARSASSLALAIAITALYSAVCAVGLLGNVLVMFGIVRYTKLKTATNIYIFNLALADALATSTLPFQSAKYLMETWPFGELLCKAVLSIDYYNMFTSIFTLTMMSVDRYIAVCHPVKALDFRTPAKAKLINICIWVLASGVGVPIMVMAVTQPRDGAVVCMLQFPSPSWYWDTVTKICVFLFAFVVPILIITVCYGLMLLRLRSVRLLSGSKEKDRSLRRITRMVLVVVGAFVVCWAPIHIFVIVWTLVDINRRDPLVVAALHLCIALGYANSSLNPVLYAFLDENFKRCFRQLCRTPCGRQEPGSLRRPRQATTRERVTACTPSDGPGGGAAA

Mu-type opioid receptor = Mu-type opioid receptor (Mus musculus, UniProt P42866); experiment: Displacement of [3H]DAMGO from mu opioid receptor in mouse cerebellum
Chain of Mu-type opioid receptor (P42866 whole entry): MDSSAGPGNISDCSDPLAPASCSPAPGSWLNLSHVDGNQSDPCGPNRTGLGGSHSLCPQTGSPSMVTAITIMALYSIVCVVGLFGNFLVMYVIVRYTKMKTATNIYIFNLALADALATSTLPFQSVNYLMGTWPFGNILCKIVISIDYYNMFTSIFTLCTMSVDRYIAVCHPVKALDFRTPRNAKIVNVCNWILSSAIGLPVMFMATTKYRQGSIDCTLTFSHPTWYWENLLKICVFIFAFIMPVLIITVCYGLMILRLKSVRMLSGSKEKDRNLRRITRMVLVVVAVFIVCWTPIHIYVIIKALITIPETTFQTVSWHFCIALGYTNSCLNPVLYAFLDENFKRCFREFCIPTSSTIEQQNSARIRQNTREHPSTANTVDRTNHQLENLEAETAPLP

[4] = biological target: Kappa-type opioid receptor (Cavia porcellus, UniProt P41144); experiment: Displacement of [3H]U-69,593 from kappa opioid receptor in guinea pig cerebellum
Chain of Kappa-type opioid receptor (P41144 whole entry): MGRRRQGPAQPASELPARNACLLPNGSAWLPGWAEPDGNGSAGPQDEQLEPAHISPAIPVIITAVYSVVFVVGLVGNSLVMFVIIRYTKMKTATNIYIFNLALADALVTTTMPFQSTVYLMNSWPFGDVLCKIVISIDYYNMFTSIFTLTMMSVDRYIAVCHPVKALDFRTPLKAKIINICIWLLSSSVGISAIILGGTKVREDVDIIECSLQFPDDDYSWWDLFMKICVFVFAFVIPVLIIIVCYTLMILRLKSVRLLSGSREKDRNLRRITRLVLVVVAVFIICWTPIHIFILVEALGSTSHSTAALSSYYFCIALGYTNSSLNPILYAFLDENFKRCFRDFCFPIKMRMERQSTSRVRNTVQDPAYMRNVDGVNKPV

Row | SMILES | Ratio Ki [1] | Ratio Ki [2] | Ki [3] [nM] | Ki (Mu-type opioid receptor) [nM] | Ki [4] [nM]
1 | CN(C(=O)/C=C/c1ccoc1)[C@@H]1CC[C@H]2[C@H]3Cc4ccc(O)c5c4[C@@]2(CCN3CC2CC2)[C@H]1O5 | 25.3 | 1.47 | 8.82 | 0.51 | 0.35
2 | CN(C(=O)/C=C/c1ccoc1)[C@@H]1CC[C@H]2[C@H]3CC4=C(CCCC4)[C@@]2(CCN3CC2CC2)C1 | 16.1 | 1.94 | 204 | 24.6 | 12.7
3 | CN(C(=O)/C=C/c1ccoc1)[C@@H]1CC[C@@]2(O)[C@H]3Cc4ccc(O)cc4[C@@]2(CCN3CC2CC2)C1 | 11.8 | 2.42 | 2.09 | 0.43 | 0.18
4 | CN[C@@H]1CC[C@@]2(O)[C@H]3CC4=C(CCCC4)[C@@]2(CCN3CC2CC2)C1 |  |  | > 1000 | > 1000 | 352
5 | CN(C(=O)/C=C/c1ccoc1)[C@@H]1CC[C@H]2CN(CC3CC3)CC[C@@H]2C1 |  |  | > 100000 | > 100000 | 19100
6 | CN(C(=O)/C=C/c1ccoc1)[C@@H]1CC[C@@]2(O)[C@H]3Cc4cccc5c4[C@@]2(CCN3CC2CC2)[C@H]1O5 |  | 59.8 | > 1000 | 169 | 2.82
7 | CN(C(=O)/C=C/c1ccoc1)[C@@H]1CC[C@@]2(O)[C@H]3CC4=C(CCCC4)[C@@]2(CCN3CC2CC2)C1 | 54.5 | 14.7 | 308 | 83.2 | 5.64
8 | O=C1CC[C@@]2(O)[C@H]3CC4=C(CCCC4)[C@@]2(CCN3CC2CC2)C1 | 1.19 | 0.5 | 939 | 391 | 787
